Experimental data reported in US20240197867A1, “NEURAL CONTROL OF ADAPTIVE IMMUNITY” (The Feinstein Institutes for Medical Research, priority 2021, published 2024).

Target: T1, Gi-DREADD (hM4Di) on TRPV1+ neurons (Homo sapiens, UniProt P08173, A203G/Y113C)
T1 construct: expressed in transfected cells; host or cells: TRPV1+ neurons of TRPV1Cre/Gi-DREADD transgenic mice (TRPV1Cre x R26-LSL-Gi-DREADD), in vivo
T1 sequence (P08173 1-479 Y113C/A203G): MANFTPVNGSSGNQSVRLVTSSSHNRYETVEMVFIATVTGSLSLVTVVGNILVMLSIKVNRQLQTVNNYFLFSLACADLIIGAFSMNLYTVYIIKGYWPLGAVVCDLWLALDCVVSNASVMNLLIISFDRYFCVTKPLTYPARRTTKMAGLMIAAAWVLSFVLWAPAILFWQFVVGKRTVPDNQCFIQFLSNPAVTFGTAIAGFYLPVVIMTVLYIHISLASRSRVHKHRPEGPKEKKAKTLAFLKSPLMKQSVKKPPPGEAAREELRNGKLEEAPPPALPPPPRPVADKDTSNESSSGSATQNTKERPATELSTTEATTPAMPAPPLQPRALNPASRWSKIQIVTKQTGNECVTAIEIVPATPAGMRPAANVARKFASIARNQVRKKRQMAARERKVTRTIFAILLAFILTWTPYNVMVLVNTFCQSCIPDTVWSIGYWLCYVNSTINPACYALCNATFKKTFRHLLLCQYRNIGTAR
Assay: Chemogenetic silencing of TRPV1+ neurons before intratracheal NP27-OVA immunization; NP-specific antibody titer by ELISA
Assay type: in vivo
Details: TRPV1-Gi-DREADD mice; CNO intraperitoneally 30 minutes prior to intratracheal immunization with NP27-OVA; D14 post-immunization; n=11; p=0.0017 vs vehicle
Procedure: FIG. 1. Silencing of sensory nerves at the time of primary immunization impacts antigen specific antibody responses. TRPV1^Cre/Gi-DREADD mice were administered with vehicle (DMSO) or CNO 30 min prior to immunization. Titer of NP-specific antibodies were monitored using ELISA.
Using an intra-tracheal instillation technique, specific antigens were delivered in the lung. Tracheal instillations are preferred methodology, over inhalation protocols that may primarily target the upper respiratory tract. This allows for making subsequent physiological measurements on test animals, or reinstallation using the same animal. Also, the dose of the inoculum introduced into the lungs can be carefully determined and more accurately delivered to ensure animal recovery. […] TRPV1+ neurons were selectively silenced at the time of immunization using a chemogenetic mouse model. The Gi-DREADD, also known as human muscarinic receptor 4 (hM4Di), is a mutated muscarinic acetylcholine receptor that, when activated by its ligand, CNO, initiates the inhibitory G-protein signaling cascade that inhibits neuronal signaling and/or excitability. TRPV1Cre/Gi-DREADD mice that express Gi-DREADD on TRPV1+ neurons were generated by crossing TRPV1Cre mice with R26-LSLGi-DREADD mice controls. […] Antibody levels were assessed over time. […]

C[N+]1([O-])CCN(C2=Nc3cc(Cl)ccc3Nc3ccccc32)CC1 [CNO, clozapine-N-oxide]
Anti-NP IgG1, Mean±SEM: 42,525+14,641 U/mL
